Test results as given in PMC3914206.

Columns and labels:
Test in all cases: KiNativ chemical proteomics profiling in HeLa and PC3 cell lysates
Type in all cases: binding
[1] = biological target: T1, selected panels of kinases in HeLa and PC3 cell lysates (Homo sapiens, UniProt P29323); conditions: 10 uM; proteome PC3; peptide […]kIPIR; labeling site Activation Loop
T1 construct: endogenous in cells; host or cells: HeLa and PC3 cell lysates

[2] = biological target: T2, selected panels of kinases in HeLa and PC3 cell lysates (Homo sapiens, UniProt Q86SG6); conditions: 10 uM; proteome PC3; peptide DLkTQNILLDK; labeling site Lys2
T2 construct: endogenous in cells; host or cells: HeLa and PC3 cell lysates
T2 sequence (Q86SG6 whole entry): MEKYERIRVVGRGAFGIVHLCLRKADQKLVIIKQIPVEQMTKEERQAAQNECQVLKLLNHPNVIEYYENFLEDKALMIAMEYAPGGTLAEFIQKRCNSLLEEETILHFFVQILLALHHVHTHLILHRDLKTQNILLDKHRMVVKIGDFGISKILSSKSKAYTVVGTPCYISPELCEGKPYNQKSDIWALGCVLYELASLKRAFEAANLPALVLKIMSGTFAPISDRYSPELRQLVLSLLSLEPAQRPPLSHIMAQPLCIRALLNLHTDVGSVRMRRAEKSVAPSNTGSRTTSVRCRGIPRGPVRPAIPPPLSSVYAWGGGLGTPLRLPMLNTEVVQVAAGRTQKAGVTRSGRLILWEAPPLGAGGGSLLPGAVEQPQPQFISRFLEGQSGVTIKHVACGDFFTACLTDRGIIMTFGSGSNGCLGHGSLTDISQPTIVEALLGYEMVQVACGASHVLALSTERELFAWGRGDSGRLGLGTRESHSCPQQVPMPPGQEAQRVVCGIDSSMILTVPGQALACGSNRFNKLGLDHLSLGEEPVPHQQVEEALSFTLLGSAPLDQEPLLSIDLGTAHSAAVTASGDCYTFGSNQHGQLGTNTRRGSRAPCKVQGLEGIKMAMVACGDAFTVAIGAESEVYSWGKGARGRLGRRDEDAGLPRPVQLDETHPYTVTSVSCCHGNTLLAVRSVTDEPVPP

[3] = biological target: T3, selected panels of kinases in HeLa and PC3 cell lysates (Homo sapiens, UniProt Q9NZJ5); conditions: 10 uM, PEK, peptide DLk[…], labeling site Lys2
T3 construct: endogenous in cells; host or cells: HeLa and PC3 cell lysates
T3 sequence (Q9NZJ5 30-1116): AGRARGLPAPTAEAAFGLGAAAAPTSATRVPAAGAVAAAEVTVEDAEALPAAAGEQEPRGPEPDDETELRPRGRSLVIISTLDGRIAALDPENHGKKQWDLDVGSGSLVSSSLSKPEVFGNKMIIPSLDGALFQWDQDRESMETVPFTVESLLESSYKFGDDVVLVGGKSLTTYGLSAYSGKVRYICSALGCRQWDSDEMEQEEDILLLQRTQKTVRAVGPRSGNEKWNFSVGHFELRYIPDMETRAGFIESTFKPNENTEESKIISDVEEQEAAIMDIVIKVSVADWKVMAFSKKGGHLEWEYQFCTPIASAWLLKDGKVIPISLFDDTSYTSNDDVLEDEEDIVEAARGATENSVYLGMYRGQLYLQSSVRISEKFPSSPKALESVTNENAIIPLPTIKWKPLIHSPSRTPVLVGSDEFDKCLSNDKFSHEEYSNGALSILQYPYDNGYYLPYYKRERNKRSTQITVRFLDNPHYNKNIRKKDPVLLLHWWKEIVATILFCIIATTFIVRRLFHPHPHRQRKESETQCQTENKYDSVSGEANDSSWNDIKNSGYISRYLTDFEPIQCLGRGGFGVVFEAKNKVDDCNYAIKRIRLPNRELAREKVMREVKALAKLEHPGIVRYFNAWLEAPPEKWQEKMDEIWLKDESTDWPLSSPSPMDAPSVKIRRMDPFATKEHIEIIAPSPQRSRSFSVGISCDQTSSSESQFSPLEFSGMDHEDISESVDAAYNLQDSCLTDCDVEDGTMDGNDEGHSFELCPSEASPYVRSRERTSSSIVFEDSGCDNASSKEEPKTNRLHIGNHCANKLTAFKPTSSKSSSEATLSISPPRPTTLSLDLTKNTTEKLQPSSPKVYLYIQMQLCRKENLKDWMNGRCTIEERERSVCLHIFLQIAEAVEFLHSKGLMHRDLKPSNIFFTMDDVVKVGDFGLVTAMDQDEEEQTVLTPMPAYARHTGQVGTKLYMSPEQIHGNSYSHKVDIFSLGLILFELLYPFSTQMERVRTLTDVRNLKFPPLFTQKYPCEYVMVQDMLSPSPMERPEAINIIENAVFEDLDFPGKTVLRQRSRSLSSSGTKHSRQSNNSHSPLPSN

[4] = biological target: T4, selected panels of kinases in HeLa and PC3 cell lysates (Homo sapiens, UniProt Q16644); conditions: 10 uM; proteome HEL; peptide […]k[…]; labeling site ATP Loop
T4 construct: endogenous in cells; host or cells: HeLa and PC3 cell lysates

[5] = biological target: T5, selected panels of kinases in HeLa and PC3 cell lysates (Homo sapiens, UniProt P51617); conditions: 10 uM; proteome PC3; peptide […]k[…]; labeling site Lys2
T5 construct: endogenous in cells; host or cells: HeLa and PC3 cell lysates

[6] = biological target: T6, selected panels of kinases in HeLa and PC3 cell lysates (Homo sapiens, UniProt P19525); conditions: 10 uM, PKR, peptide DLk[…], labeling site Lys2
T6 construct: endogenous in cells; host or cells: HeLa and PC3 cell lysates
T6 sequence (P19525 whole entry): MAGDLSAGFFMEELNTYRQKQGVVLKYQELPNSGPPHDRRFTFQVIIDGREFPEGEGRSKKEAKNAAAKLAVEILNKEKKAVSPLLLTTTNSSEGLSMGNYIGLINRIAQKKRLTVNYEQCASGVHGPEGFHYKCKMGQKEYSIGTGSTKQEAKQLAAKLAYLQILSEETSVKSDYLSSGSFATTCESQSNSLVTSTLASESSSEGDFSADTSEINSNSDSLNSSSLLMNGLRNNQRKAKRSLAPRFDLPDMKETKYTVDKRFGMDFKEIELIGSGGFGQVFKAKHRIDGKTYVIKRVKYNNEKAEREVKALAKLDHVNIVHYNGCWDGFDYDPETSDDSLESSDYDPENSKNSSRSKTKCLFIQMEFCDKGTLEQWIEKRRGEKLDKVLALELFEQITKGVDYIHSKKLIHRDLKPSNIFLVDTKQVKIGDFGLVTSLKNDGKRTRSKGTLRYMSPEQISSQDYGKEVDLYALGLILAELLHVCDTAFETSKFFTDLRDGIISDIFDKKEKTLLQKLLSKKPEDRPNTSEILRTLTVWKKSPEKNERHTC

[7] = biological target: T7, selected panels of kinases in HeLa and PC3 cell lysates (Homo sapiens, UniProt Q53H12); conditions: 10 uM; proteome PC3; peptide […]kGK; labeling site ATP
T7 construct: endogenous in cells; host or cells: HeLa and PC3 cell lysates

[8] = biological target: T8, selected panels of kinases in HeLa and PC3 cell lysates (Homo sapiens, UniProt Q00535); conditions: 10 uM, proteome PC3
T8 construct: endogenous in cells; host or cells: HeLa and PC3 cell lysates
T8 sequence (Q00535 whole entry): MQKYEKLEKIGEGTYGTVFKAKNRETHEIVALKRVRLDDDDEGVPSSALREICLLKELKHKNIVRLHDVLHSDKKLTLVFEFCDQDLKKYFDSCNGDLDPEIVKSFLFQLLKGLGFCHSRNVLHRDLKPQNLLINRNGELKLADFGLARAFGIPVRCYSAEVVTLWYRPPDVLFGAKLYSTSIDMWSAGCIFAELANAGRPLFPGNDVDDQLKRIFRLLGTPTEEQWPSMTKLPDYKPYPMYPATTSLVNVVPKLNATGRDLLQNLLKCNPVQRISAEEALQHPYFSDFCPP

[9] = biological target: T9, selected panels of kinases in HeLa and PC3 cell lysates (Homo sapiens, UniProt P48729); conditions: 10 uM; proteome PC3; peptide DIk[…]; labeling site Lys2
T9 construct: endogenous in cells; host or cells: HeLa and PC3 cell lysates
T9 sequence (P48729 whole entry): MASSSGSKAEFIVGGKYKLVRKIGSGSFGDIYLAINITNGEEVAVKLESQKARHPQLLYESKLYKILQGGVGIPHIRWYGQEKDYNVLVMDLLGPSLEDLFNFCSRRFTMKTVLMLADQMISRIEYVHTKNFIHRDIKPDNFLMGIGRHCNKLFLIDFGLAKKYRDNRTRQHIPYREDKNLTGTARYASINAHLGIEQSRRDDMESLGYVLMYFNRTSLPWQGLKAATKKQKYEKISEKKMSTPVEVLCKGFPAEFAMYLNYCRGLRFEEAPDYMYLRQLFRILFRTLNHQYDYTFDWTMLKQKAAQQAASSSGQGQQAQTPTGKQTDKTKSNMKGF

[10] = biological target: T10, selected panels of kinases in HeLa and PC3 cell lysates (Homo sapiens, UniProt P19784); conditions: 10 uM; proteome PC3; peptide DVk[…]; labeling site Lys2
T10 construct: endogenous in cells; host or cells: HeLa and PC3 cell lysates
T10 sequence (P19784 whole entry): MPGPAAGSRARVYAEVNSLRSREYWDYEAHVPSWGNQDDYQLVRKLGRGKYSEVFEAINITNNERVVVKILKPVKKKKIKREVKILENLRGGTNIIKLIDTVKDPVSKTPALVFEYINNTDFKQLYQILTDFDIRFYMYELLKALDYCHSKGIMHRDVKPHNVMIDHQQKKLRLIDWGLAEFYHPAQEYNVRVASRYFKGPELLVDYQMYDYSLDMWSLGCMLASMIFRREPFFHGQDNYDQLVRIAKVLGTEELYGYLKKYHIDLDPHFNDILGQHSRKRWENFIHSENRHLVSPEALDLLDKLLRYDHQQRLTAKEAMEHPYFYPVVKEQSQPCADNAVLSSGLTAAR

[11] = biological target: T11, selected panels of kinases in HeLa and PC3 cell lysates (Homo sapiens, UniProt P50750); conditions: 10 uM; proteome PC3; peptide DMkAANVLITR; labeling site Lys2
T11 construct: endogenous in cells; host or cells: HeLa and PC3 cell lysates

[12] = biological target: T12, selected panels of kinases in HeLa and PC3 cell lysates (Homo sapiens, UniProt Q00537); conditions: 10 uM; PCTAIRE2; peptide DLkPQNLLINEK; proteome HEL; labeling site Lys2
T12 construct: endogenous in cells; host or cells: HeLa and PC3 cell lysates
T12 sequence (Q00537 whole entry): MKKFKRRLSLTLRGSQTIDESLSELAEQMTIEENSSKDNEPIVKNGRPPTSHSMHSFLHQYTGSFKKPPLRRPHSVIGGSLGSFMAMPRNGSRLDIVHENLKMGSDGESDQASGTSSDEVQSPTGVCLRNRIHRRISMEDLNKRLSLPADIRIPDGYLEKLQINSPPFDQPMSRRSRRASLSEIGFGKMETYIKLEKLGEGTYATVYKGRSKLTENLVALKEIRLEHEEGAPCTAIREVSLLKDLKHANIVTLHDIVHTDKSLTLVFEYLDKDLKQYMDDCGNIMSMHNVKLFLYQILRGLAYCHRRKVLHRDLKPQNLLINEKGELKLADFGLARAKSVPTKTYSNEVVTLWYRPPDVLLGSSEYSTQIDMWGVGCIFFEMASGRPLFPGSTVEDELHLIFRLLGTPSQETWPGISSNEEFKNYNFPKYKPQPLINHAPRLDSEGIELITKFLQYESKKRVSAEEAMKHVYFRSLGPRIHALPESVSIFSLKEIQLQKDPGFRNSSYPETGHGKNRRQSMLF

[13] = biological target: T13, selected panels of kinases in HeLa and PC3 cell lysates (Homo sapiens, UniProt P49760); conditions: 10 uM; proteome PC3; peptide LTHTDLk[…]; labeling site Lys2
T13 construct: endogenous in cells; host or cells: HeLa and PC3 cell lysates

[14] = biological target: T14, selected panels of kinases in HeLa and PC3 cell lysates (Homo sapiens, UniProt Q8NEB9); conditions: 10 uM; PIK3C3; peptide […]kHGDDLR; proteome HEL; labeling site ATP
T14 construct: endogenous in cells; host or cells: HeLa and PC3 cell lysates

[15] = biological target: T15, selected panels of kinases in HeLa and PC3 cell lysates (Homo sapiens, UniProt P23458); conditions: 10 uM, proteome HEL; for % Inhibiton, JAK1 domain1: peptide […]kNLLLAR, labeling site Other
T15 construct: endogenous in cells; host or cells: HeLa and PC3 cell lysates
T15 sequence (P23458 whole entry, the tested form may be a part): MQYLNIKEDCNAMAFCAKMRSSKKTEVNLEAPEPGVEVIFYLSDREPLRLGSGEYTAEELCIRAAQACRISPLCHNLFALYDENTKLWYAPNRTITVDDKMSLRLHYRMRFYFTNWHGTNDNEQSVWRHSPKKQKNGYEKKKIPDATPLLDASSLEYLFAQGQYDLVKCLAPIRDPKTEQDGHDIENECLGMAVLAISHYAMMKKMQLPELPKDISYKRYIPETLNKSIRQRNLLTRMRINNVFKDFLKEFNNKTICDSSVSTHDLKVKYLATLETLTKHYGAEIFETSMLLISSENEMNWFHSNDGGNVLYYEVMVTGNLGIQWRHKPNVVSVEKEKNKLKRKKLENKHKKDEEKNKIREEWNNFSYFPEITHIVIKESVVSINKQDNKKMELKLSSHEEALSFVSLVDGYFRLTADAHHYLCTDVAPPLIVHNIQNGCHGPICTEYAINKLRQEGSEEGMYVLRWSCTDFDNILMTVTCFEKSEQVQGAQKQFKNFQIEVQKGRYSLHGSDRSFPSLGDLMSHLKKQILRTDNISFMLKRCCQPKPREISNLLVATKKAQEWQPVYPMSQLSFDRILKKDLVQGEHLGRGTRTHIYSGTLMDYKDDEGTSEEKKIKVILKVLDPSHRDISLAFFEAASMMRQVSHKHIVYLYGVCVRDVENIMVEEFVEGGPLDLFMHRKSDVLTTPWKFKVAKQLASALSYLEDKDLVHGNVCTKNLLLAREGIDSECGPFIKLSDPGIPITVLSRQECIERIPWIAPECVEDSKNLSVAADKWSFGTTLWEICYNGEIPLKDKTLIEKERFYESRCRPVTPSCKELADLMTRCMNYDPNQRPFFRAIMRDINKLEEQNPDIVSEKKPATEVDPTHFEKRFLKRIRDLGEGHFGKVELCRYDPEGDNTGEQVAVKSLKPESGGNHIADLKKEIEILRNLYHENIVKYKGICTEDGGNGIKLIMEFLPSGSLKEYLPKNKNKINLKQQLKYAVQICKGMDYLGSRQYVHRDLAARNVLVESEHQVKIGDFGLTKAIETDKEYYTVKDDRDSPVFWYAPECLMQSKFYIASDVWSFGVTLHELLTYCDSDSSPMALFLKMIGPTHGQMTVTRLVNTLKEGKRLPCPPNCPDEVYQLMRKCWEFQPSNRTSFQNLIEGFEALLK

[16] = biological target: T16, selected panels of kinases in HeLa and PC3 cell lysates (Homo sapiens, UniProt P29317); conditions: 10 uM, proteome PC3
T16 construct: endogenous in cells; host or cells: HeLa and PC3 cell lysates
T16 sequence (P29317 24-976): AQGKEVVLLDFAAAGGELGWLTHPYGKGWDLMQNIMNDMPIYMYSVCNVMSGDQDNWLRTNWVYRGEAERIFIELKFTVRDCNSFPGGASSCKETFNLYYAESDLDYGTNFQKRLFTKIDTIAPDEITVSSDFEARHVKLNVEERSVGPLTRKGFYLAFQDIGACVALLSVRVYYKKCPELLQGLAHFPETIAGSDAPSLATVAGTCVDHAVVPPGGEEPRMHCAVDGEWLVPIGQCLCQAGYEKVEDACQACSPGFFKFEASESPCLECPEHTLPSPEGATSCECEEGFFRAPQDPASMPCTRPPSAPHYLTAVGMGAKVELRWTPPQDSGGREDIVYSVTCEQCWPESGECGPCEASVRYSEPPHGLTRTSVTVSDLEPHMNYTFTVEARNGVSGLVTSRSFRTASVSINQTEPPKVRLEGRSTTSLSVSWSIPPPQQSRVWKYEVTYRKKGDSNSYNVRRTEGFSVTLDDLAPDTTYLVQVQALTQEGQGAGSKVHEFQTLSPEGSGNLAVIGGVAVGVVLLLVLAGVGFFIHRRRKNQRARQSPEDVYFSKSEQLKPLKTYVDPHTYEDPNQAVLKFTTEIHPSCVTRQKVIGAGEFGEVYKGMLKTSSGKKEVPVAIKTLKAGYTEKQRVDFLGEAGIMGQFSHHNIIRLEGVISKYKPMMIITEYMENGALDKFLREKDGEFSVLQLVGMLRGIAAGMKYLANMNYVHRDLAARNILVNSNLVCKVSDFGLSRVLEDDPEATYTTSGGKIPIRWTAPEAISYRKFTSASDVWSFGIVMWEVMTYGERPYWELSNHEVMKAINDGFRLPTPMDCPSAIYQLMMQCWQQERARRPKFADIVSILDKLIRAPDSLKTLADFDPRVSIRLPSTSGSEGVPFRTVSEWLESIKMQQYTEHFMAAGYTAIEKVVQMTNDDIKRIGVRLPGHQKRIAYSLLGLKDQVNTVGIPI

[17] = peptide DLkPQNLLINR, labeling site Lys2
[18] = peptide ETHEIVALkR, labeling site Lys1
[19] = peptide […]kR, labeling site Lys1
[20] = peptide IGDFGLTk[…], labeling site Activation Loop
[21] = peptide […]k[…], labeling site Lys1
[22] = peptide EVPVAIkTLK, labeling site Lys1
[23] = peptide […]kIPIR, labeling site Activation Loop

| SMILES | % Inhibiton, EphB2 [1] | % Inhibiton, NEK8 [2] | % Inhibition PEK ([3]; proteome HEL) | % Inhibition PEK ([3]; proteome PC3) | % Inhibiton, MAPKAPK3 [4] | % Inhibiton, IRAK1 [5] | % Inhibition PKR ([6]; proteome HEL) | % Inhibition PKR ([6]; proteome PC3) | % Inhibiton, AGK [7] | % Inhibiton, CDK5 [8, 17] | % Inhibiton, CDK5 [8, 18] | % Inhibiton, CDK5 [8, 19] | % Inhibiton, CK1a [9] | % Inhibiton, CK2a2 [10] | % Inhibiton, CDK9 [11] | % Inhibition PCTAIRE2 [12] | % Inhibiton, CLK2 [13] | % Inhibition PIK3C3 [14] | % Inhibiton, JAK1 domain2 [15, 20] | % Inhibiton, JAK1 domain1 [15] | also measured |
| --- | --- | --- | --- | --- | --- | --- | --- | --- | --- | --- | --- | --- | --- | --- | --- | --- | --- | --- | --- | --- | --- |
| COc1cc(C(=O)N2CCC(N3CCN(C)CC3)CC2)ccc1Nc1ncc2c(n1)N(C1CCCC1)c1ccccc1C(=O)N2C [Compound 25, 11-cyclopentyl-2-((2-methoxy-4-(4-(4-methylpiperazin-1-yl)piperidine-1-carbonyl)phenyl)amino)-5-methyl-5H-benzo[e]pyrimido[5,4-b][1,4]diazepin-6(11H)-one] | -3.8% | -18.9% | 6.4% | 6.5% | 1.8% | 1.2% | 6.1% | -3.4% | 1.8% | -8.6% | 9.7% | -1.2% | 9.4% | -14.2% | 10.0% | 4.8% | -17.0% | 4.0% | 5.1% | 3.2% | % Inhibiton, JAK1 domain2 [15, 21]: 4.8%; % Inhibiton, EphA2 [16, 22]: -0.8%; % Inhibiton, EphA2 [16, 23]: -2.3% |
| CCOc1cc(C(=O)N2CCC(N3CCN(C)CC3)CC2)ccc1Nc1ncc2c(n1)N(C1CCCC1)c1ccccc1C(=O)N2C [Compound 26] | -3.1% | -8.1% | -23.3% | -4.9% | 20.8% | -2.9% | -0.3% | -3.3% | 15.3% | -4.7% | -6.5% | 11.7% | -0.3% | 8% | 0.7% | 1.4% | 9.1% | 8.1% | 6.3% | 24.2% | % Inhibiton, JAK1 domain2 [15, 21]: 32.1%; % Inhibiton, EphA2 [16, 22]: -1.4%; % Inhibiton, EphA2 [16, 23]: -3% |
